Measured values published in US12590950B2, “Methods for predicting ER-mediated DNA damage” (UNIVERSITY OF MASSACHUSETTS, priority 2019, dated 2026).
Like-named read-outs stand apart in the source and are kept apart here.

Key:
[1] = tested on: normal human keratin cell lines; conditions: cited from earlier work
ER [2] = molecular target: T1, ER (Homo sapiens, UniProt P03372); design: host or cells: MCF-7; conditions: MCF-7, 1 μM; cited from earlier work
T1 sequence (P03372 1-595): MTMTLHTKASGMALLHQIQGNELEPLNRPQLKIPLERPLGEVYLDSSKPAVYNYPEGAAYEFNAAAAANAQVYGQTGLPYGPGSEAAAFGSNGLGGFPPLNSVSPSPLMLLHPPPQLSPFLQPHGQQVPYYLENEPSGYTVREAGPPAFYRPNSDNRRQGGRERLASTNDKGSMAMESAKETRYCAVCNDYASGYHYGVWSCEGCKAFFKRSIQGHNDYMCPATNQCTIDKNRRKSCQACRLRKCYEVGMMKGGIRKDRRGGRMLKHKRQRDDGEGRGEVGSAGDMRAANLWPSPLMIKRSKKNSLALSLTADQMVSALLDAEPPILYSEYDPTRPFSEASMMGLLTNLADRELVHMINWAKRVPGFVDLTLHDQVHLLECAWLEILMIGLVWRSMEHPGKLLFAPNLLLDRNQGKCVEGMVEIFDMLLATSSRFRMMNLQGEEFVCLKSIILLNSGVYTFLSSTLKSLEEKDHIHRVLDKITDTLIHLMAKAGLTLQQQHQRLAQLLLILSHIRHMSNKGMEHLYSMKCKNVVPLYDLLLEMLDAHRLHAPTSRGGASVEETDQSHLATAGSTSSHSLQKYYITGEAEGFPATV

estrogen receptor = molecular target: T2, estrogen receptor (Homo sapiens, UniProt P03372); test: Luciferase reporter assay (ERE-luciferase transactivation) in T47D-KBluc cells; type: cell-based; conditions: for LOEC (lowest-observed-effect-concentration) for transcription in luciferase assay: T47D-KBluc, 24 h treatment
T2 sequence (P03372 1-595): T1 sequence (P03372 1-595)

[3] = also printed as 200 μg/L; cited from earlier work
76N-Tert-ESR1 cell line [4] = test: S9.6 immunostaining (R-loops) in 76N-Tert-ESR1 cells induced with doxycycline; conditions: 76N-Tert-ESR1 after induction of ERα with doxycycline, 5 μM
76N-Tert-ESR1 cell line [5] = conditions: human, 5 µM
ER [6] = molecular target: T1, ER; conditions: 10 μM; cited from earlier work

| SMILES | concentration inducing γH2AX foci [1] [µM] | ER agonism in transactivation and proliferation assays (ER [2]) | LOEC (lowest-observed-effect-concentration) for transcription in luciferase assay (estrogen receptor) [µM] | Relative Transactivation Activity at 90%ile or 95%ile (% RTA vs E2) (estrogen receptor; at 95%ile urine concentration of non-pregnant women) [%] | Relative Transactivation Activity at 90%ile or 95%ile (% RTA vs E2) (estrogen receptor; at 95%ile urine concentration of pregnant women) [%] | maximum relative transactivation activity (RTA) compared to 10 nM E2 (estrogen receptor; maximum) [%] | serum level following exposure in women [3] | nuclear S9.6 foci (76N-Tert-ESR1 cell line [4]) | nuclear S9.6 foci (76N-Tert-ESR1 cell line [5]) | induction of gene expression (ERE-CAT reporter) (ER [6]) [fold] |
| --- | --- | --- | --- | --- | --- | --- | --- | --- | --- | --- |
| COc1ccc(C(=O)c2ccccc2)c(O)c1 [BP3, 2-Hydroxy-4-methoxybenzophenone] | 10 | weak agonist | 5 | 18.91 ± 6.62 | 27.16±6.2 | 37 | approximately 0.87 μM | increased number of nuclear S9.6 foci significantly over vehicle-treated control |  |  |
| CCCOC(=O)c1ccc(O)cc1 [PP, propyl parahydroxybenzoate] |  |  | 0.5 |  |  |  |  |  | increased number of nuclear S9.6 foci significantly over vehicle-treated control | 1.3 |
